From ChEMBL document CHEMBL4765450, “The components and activities analysis of a novel anticoagulant candidate dHG-5” (Eur J Med Chem, 2020)
Calls of active or inactive are those of the source. The calls are words filed in the database; no cut-off is given here.

Columns and labels:
[1] = target: Prothrombin (Homo sapiens) (UniProt P00734); test: Inhibition of factor 2a (unknown origin) at IC50 preincubated for 1 min followed by chromogenic substrate addition and measured for 2 mins; conditions: time 3.0 min
[2] = target: T1, Coagulation factor VII (Homo sapiens) (UniProt P08709); test: Inhibition of factor 7a (unknown origin) at IC50 using pefachrome factor VIIa as substrate preincubated for 1 min followed by chromogenic substrate addition and measured for 2 mins; conditions: time 3.0 min
T1 sequence (whole entry): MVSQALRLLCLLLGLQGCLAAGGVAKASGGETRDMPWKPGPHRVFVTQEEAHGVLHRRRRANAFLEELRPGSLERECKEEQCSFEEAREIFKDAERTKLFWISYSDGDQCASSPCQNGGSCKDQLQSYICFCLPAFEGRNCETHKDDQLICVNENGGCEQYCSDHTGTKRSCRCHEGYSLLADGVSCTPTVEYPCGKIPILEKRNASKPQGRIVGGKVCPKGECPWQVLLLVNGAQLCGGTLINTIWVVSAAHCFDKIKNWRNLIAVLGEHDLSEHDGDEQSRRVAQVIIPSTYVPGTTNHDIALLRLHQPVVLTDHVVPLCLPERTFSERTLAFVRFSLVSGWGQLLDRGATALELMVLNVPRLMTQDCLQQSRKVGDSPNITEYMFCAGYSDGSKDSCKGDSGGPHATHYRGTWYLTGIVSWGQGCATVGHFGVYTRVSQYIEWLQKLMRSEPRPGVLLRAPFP

[3] = target: Coagulation factor X (Homo sapiens) (UniProt P00742); test: Inhibition of factor 10a (unknown origin) at IC50 preincubated for 1 min followed by chromogenic substrate addition and measured for 2 mins; conditions: time 3.0 min
Coagulation factor X (Homo sapiens), sequence (P00742 41-179 limits assumed): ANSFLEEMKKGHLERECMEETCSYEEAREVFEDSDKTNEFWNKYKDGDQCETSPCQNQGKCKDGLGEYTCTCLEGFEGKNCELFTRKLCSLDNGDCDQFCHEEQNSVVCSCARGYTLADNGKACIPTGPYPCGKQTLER
Coagulation factor X (Homo sapiens), sequence (P00742 235-488 limits assumed): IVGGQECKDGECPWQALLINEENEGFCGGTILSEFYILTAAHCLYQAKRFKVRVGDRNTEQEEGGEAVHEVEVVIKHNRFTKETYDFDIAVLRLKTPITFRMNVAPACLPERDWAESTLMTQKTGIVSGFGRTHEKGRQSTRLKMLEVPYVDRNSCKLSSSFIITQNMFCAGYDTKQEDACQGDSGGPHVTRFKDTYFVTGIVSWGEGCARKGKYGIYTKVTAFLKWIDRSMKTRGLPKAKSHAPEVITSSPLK

[4] = target: Coagulation factor XI (Homo sapiens) (UniProt P03951); test: Inhibition of factor 11a (unknown origin) at IC50 using S-2366 as substrate preincubated for 1 min followed by chromogenic substrate addition and measured for 2 mins; conditions: time 3.0 min
Coagulation factor XI (Homo sapiens), sequence (P03951 19-387 limits assumed): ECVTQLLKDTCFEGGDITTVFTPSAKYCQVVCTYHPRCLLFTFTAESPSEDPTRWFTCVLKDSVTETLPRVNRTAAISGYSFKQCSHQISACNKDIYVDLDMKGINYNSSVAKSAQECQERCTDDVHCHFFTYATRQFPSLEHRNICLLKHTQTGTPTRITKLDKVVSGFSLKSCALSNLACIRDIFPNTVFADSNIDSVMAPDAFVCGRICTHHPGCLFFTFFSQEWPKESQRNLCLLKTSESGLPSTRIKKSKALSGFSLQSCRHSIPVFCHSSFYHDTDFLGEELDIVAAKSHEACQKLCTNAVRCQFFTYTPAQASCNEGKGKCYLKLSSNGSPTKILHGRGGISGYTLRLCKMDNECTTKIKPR
Coagulation factor XI (Homo sapiens), sequence (P03951 388-625 limits assumed): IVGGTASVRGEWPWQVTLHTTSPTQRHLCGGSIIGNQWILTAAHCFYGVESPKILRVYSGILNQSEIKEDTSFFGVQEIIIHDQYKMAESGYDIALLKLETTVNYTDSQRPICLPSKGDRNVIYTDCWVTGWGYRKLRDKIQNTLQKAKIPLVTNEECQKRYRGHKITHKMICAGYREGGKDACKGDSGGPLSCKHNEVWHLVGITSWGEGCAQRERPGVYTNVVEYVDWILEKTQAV

[5] = target: T2, Coagulation factor XII (Homo sapiens) (UniProt P00748); test: Inhibition of factor 12a (unknown origin) at IC50 using kallikrein chromogenic substrate preincubated for 1 min followed by chromogenic substrate addition and measured for 2 mins; conditions: time 3.0 min
T2 sequence (whole entry): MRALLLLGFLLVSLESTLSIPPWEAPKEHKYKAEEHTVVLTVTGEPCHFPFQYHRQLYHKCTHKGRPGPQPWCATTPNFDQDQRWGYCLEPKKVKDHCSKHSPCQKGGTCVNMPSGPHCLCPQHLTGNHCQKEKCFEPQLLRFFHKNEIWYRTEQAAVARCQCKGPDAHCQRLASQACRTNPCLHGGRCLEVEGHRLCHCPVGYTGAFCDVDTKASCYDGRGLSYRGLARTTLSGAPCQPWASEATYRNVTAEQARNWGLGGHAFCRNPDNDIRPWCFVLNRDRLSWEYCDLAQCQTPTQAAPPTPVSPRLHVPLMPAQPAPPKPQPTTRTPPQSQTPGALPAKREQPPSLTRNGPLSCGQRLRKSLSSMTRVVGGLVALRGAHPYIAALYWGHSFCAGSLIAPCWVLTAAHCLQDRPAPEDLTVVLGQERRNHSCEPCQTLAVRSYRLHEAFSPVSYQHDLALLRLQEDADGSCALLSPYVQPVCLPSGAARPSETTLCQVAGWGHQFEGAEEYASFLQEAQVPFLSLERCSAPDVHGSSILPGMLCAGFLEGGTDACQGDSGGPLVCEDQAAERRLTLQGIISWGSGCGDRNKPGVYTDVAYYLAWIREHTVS

[6] = target: Prothrombin (Homo sapiens) (UniProt P00734); test: Inhibition of factor 2a (unknown origin) at IC50 preincubated for 1 min followed by chromogenic substrate addition and measured for 2 mins in presence of AT-III; conditions: time 3.0 min
[7] = target: T1, Coagulation factor VII (Homo sapiens); test: Inhibition of factor 7a (unknown origin) at IC50 using pefachrome factor VIIa as substrate preincubated for 1 min followed by chromogenic substrate addition and measured for 2 mins in presence of AT-III; conditions: time 3.0 min
[8] = target: Coagulation factor X (Homo sapiens) (UniProt P00742); test: Inhibition of factor 10a (unknown origin) at IC50 preincubated for 1 min followed by chromogenic substrate addition and measured for 2 mins in presence of AT-III; conditions: time 3.0 min
[9] = target: Coagulation factor XI (Homo sapiens) (UniProt P03951); test: Inhibition of factor 11a (unknown origin) at IC50 using S-2366 as substrate preincubated for 1 min followed by chromogenic substrate addition and measured for 2 mins in presence of AT-III; conditions: time 3.0 min
[10] = target: T2, Coagulation factor XII (Homo sapiens); test: Inhibition of factor 12a (unknown origin) at IC50 using kallikrein chromogenic substrate preincubated for 1 min followed by chromogenic substrate addition and measured for 2 mins in presence of AT-III; conditions: time 3.0 min
[11] = target: Prothrombin (Homo sapiens) (UniProt P00734); test: Inhibition of factor 2a (unknown origin) at IC90 preincubated for 1 min followed by chromogenic substrate addition and measured for 2 mins in presence of AT-III; conditions: time 3.0 min
[12] = target: Coagulation factor XI (Homo sapiens) (UniProt P03951); test: Inhibition of factor 11a (unknown origin) at IC90 using S-2366 as substrate preincubated for 1 min followed by chromogenic substrate addition and measured for 2 mins in presence of AT-III; conditions: time 3.0 min
[13] = target: Coagulation factor X (Homo sapiens) (UniProt P00742); test: Inhibition of factor 10a (unknown origin) at IC90 preincubated for 1 min followed by chromogenic substrate addition and measured for 2 mins in presence of AT-III relative to control; conditions: time 3.0 min
[14] = test system: Plasma; test: (§1) Anticoagulation activity in human plasma assessed as drug level causing 20 times doubling of APTT preincubated for 2 mins followed by APTT reagent and measured after 3 mins by coagulometric method relative to dHG-5; assay type: functional; conditions: time 5 min
[15] = target: T3, Coagulation factor IX/VIII (Homo sapiens) (UniProt P00740+P00451); test: (§2) Inhibition of human citrated plasma iXase (factor 8a-factor 9a complex) preincubated for 2 mins followed by factor 10 addition and measured after 1 min by FXa chromogenic substrate SXa-11 based assay relative to dHG-5; assay type: protein-complex assay; conditions: time 3.0 min
[16] = target: T4, Coagulation factor IX (Homo sapiens, UniProt P00740); test: Inhibition of factor 9a (unknown origin) binding to immobilized biotinylated oHG-11 by biolayer interferometry relative to dHG-5
T4 sequence (P00740 47-191 limits assumed): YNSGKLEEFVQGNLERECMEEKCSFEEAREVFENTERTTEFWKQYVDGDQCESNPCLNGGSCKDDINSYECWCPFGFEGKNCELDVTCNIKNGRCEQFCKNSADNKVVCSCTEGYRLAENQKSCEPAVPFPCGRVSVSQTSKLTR
T4 sequence (P00740 227-461 limits assumed): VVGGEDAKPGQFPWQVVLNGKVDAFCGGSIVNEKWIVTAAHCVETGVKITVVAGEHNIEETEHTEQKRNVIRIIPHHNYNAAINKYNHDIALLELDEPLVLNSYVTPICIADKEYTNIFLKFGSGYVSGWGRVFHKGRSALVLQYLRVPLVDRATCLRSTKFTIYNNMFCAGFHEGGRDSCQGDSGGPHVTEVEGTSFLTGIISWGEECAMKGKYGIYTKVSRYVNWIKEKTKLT

[17] = test system: Rattus norvegicus; test: Antithrombotic activity in thromboplastin and stasis-induced Sprague-Dawley rat deep venous thrombosis model assessed as reduction in venous thrombosis at 3.64 mg/kg, sc administered 1 hr prior to thromboplastin addition for 20 secs followed by establishment of stasis for 20 mins relative to dHG-5; assay type: functional; conditions: time 80.33 min, 1.339 h
[18] = test system: Plasma; test: as §1, with “of APTT by measuring activity potency of oligosaccharides multiplied by the percentage of oligosaccharides in dHG-5 preincubated for” for “of APTT preincubated for”; assay type: functional; conditions: time 5 min
[19] = target: T3, Coagulation factor IX/VIII (Homo sapiens); test: as §2, with “complex) assessed as activity potency of oligosaccharides multiplied by the percentage of oligosaccharides in dHG-5” for “complex)”; assay type: protein-complex assay; conditions: time 3.0 min
[20] = target: T4, Coagulation factor IX; test: Inhibition of factor 9a (unknown origin) binding to immobilized biotinylated oHG-11 assessed as activity potency of oligosaccharides multiplied by the percentage of oligosaccharides in dHG-5 by biolayer interferometry relative to dHG-5
[21] = test system: Rattus norvegicus; test: Antithrombotic activity in thromboplastin and stasis-induced Sprague-Dawley rat deep venous thrombosis model assessed as reduction in venous thrombosis by measuring activity potency of oligosaccharides multiplied by the percentage of oligosaccharides in dHG-5 at 3.64 mg/kg, sc administered 1 hr prior to thromboplastin addition for 20 secs followed by establishment of stasis for 20 mins relative …; assay type: functional; conditions: time 80.33 min, 1.339 h
[22] = test system: Plasma; test: Induction of platelet aggregation in human platelet rich plasma at plasma peak concentration of 10 times anti-thrombosis ED50 measured after 10 mins by light transmission aggregometry
[23] = test system: Plasma; test: Induction of platelet aggregation in rat wash platelet at plasma peak concentration of 10 times anti-thrombosis ED50 measured after 10 mins by light transmission aggregometry
[24] = test system: Rattus norvegicus; test: (§3) Antithrombotic activity in thromboplastin and stasis-induced Sprague-Dawley rat deep venous thrombosis model assessed as reduction in venous thrombosis at 2.7 mg/kg, sc administered 1 hr prior to thromboplastin addition for 20 secs followed by establishment of stasis for 20 mins relative to dHG-5; assay type: functional; conditions: time 80.33 min, 1.339 h
[25] = test system: Rattus norvegicus; test: as §3, with “venous thrombosis by measuring activity potency of oligosaccharides multiplied by the percentage of oligosaccharides in dHG-5 at 2.7” for “venous thrombosis at 2.7”; assay type: functional; conditions: time 80.33 min, 1.339 h

Compound	inhibition [1]	inhibition (active/not active) [2]	inhibition [3]	inhibition [4]	inhibition [5]	inhibition [6]	inhibition [7]	inhibition [8]	inhibition [9]	inhibition [10]	inhibition [11]	inhibition [12]	inhibition [13]	Ratio [14]	Ratio [15]	Ratio [16]	Ratio [18]	Ratio [19]	Ratio [20]	further results
CC(=O)N[C@H]1[C@H](O[C@@H]([C@H](O[C@@H]2O[C@@H](C)[C@@H](OS(=O)(=O)[O-])[C@@H](O)[C@@H]2OS(=O)(=O)O)[C@@H](O)CO)[C@H](O)C(=O)[O-])O[C@H](COS(=O)(=O)[O-])[C@H](OS(=O)(=O)[O-])[C@@H]1O[C@@H]1O[C@H](C(=O)[O-])[C@@H](O[C@@H]2O[C@H](COS(=O)(=O)[O-])[C@H](OS(=O)(=O)[O-])[C@H](O[C@@H]3O[C@H](C(=O)[O-])[C@@H](O[C@@H]4O[C@H](COS(=O)(=O)[O-])[C@H](OS(=O)(=O)[O-])[C@H](O[C@@H]5OC(C(=O)[O-])=C[C@H](O[C@@H]6O[C@@H](C)[C@@H](OS(=O)(=O)[O-])[C@@H](OS(=O)(=O)O)[C@@H]6O)[C@H]5O)[C@H]4NC(C)=O)[C@H](O[C@@H]4O[C@@H](C)[C@@H](OS(=O)(=O)[O-])[C@@H](O)[C@@H]4OS(=O)(=O)O)[C@H]3O)[C@H]2NC(C)=O)[C@H](O[C@@H]2O[C@@H](C)[C@@H](OS(=O)(=O)[O-])[C@@H](O)[C@@H]2OS(=O)(=O)O)[C@H]1O.[Na+].[Na+].[Na+].[Na+].[Na+].[Na+].[Na+].[Na+].[Na+].[Na+].[Na+].[Na+].[Na+].[Na+]	inactive	inactive	inactive	inactive	inactive	inactive	inactive	inactive	inactive	inactive	Active	Active	14.2%	28.01 U	28.6 U	20.9 U	4.92 U	5.02 U	3.66 U	Ratio [17]: 48.6 U; Ratio [21]: 8.55 U
CC(=O)N[C@H]1[C@H](O[C@@H]([C@H](O[C@@H]2O[C@@H](C)[C@@H](OS(=O)(=O)[O-])[C@@H](OS(=O)(=O)O)[C@@H]2O)[C@@H](O)CO)[C@H](O)C(=O)[O-])O[C@H](COS(=O)(=O)[O-])[C@H](OS(=O)(=O)[O-])[C@@H]1O[C@@H]1O[C@H](C(=O)[O-])[C@@H](O[C@@H]2O[C@H](COS(=O)(=O)[O-])[C@H](OS(=O)(=O)[O-])[C@H](O[C@@H]3O[C@H](C(=O)[O-])[C@@H](O[C@@H]4O[C@H](COS(=O)(=O)[O-])[C@H](OS(=O)(=O)[O-])[C@H](O[C@@H]5O[C@H](C(=O)[O-])[C@@H](O[C@@H]6O[C@H](COS(=O)(=O)[O-])[C@H](OS(=O)(=O)[O-])[C@H](O[C@@H]7OC(C(=O)[O-])=C[C@H](O[C@@H]8O[C@@H](C)[C@@H](OS(=O)(=O)[O-])[C@@H](OS(=O)(=O)O)[C@@H]8O)[C@H]7O)[C@H]6NC(C)=O)[C@H](O[C@@H]6O[C@@H](C)[C@@H](OS(=O)(=O)[O-])[C@@H](OS(=O)(=O)O)[C@@H]6O)[C@H]5O)[C@H]4NC(C)=O)[C@H](O[C@@H]4O[C@@H](C)[C@@H](OS(=O)(=O)[O-])[C@@H](OS(=O)(=O)O)[C@@H]4O)[C@H]3O)[C@H]2NC(C)=O)[C@H](O[C@@H]2O[C@@H](C)[C@@H](OS(=O)(=O)[O-])[C@@H](OS(=O)(=O)O)[C@@H]2O)[C@H]1O.[Na+].[Na+].[Na+].[Na+].[Na+].[Na+].[Na+].[Na+].[Na+].[Na+].[Na+].[Na+].[Na+].[Na+].[Na+].[Na+].[Na+].[Na+]	inactive	inactive	inactive	inactive	inactive	inactive	inactive	inactive	inactive	inactive	Active	Active	14.2%	61.09 U	51.8 U	35.9 U	9.73 U	8.26 U	5.72 U	Activity [22]: Not Active; Activity [23]: Not Active; Ratio [24]: 113.95 U; Ratio [25]: 18.12 U
